These results are taken from patent US20080167330A1, “Carbamoylsulphoximides as protein kinase inhibitors” (priority 2006, published 2008).

What all share (assay type): biochemical
One test deals with T1, human Aurora-C (Homo sapiens, UniProt Q9UQB9).
T1 construct: GST; made in house; host or cells: transiently transfected HEK293 cells
T1 sequence (Q9UQB9 1-309): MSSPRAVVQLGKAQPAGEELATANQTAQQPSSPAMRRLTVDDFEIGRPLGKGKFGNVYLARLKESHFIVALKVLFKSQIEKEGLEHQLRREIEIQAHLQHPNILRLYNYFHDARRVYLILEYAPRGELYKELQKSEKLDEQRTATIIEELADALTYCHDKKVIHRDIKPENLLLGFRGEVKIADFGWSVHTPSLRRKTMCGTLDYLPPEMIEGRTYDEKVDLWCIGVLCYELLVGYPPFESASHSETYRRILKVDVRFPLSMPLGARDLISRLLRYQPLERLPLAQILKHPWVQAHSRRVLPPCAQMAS
As to the kind of experiment: Aurora-C kinase assay (HTRF). The settings on record: 10 μM ATP. The protocol: The Aurora-C inhibitory activity of the substances of this invention was measured in the Aurora-C-HTRF assay (HTRF=Homogeneous Time Resolved Fluorescence) described in the following paragraphs.
Recombinant fusion protein of GST and human Aurora-C was expressed in transiently transfected HEK293 cells and purified by affinity chromatography on glutathione-Sepharose. The substrate used for the kinase reaction was the biotinylated peptide biotin-Ttds-FMRLRRLSTKYRT (C terminus in amide form) which can be purchased for example from JERINI Peptide Technologies (Berlin). Aurora-C was incubated in the presence of various concentrations of test substances in 5 μL of assay buffer [25 mM Hepes/NaOH pH 7.4, 0.5 mM MnCl2, 2.0 mM dithiothreitol, 0.1 mM sodium orthovanadate, 10 μM adenosine triphosphate (ATP), […] substrate, 0.01% (v/v) TritonX-100 (Sigma), 0.05% (w/v) bovine serum albumin (BSA), 1% (v/v) dimethyl sulphoxide] at 22° C. for 60 min. The concentration of Aurora-C was adapted to the particular activity of the enzyme and adjusted so that the assay operated in the linear range. Typical concentrations were in the region of 0.3 nM. The reaction was stopped by adding 5 μl of a solution of HTRF detection reagents (0.2 μM streptavidin-XLent and 1.4 nM anti-phospho-(Ser/Thr)-Akt substrate-Eu-cryptate (Cis biointernational, France, product No. 61P02KAE), a Europium-cryptate-labelled phospho-(Ser/Thr)-Akt substrate antibody [product #9611B, Cell Signaling Technology, Danvers, Mass., USA]) in aqueous EDTA solution (40 mM EDTA, 400 mM KF, 0.05% (w/v) bovine serum albumin (BSA) in 25 mM HEPES/NaOH pH 7.0).
The resulting mixture was incubated at 22° C. for 1 h in order to allow formation of a complex of the biotinylated phosphorylated substrate and the detection reagents. The amount of phosphorylated substrate was then estimated by measuring the resonance energy transfer from the anti-phospho-(Ser/Thr)-Akt substrate-Eu cryptate to the streptavidin-XLent. For this purpose, the fluorescence emissions at 620 nm and 665 nm after excitation at 350 nm were measured in an HTRF measuring instrument, e.g. a Rubystar (BMG Labtechnologies, Offenburg, Germany) or a Viewlux (Perkin-Elmer). The ratio of the emissions at 665 nm and at 622 nm was taken as a measure of the amount of phosphorylated substrate. The data were normalized (enzymic reaction without inhibitor=0% inhibition, all other assay components but no enzyme=100% inhibition) and IC50 values were calculated with a 4-parameter fit using an inhouse software.
(Time-resolved FRET reads energy transfer from a long-lived donor to a nearby acceptor.)

The next test deals with T2, CDK1/CycB (Homo sapiens, UniProt P06493).
T2 construct: GST; purchased ProQinase GmbH, Freiburg; host or cells: baculovirus-infected insect cells (Sf9)
T2 sequence (P06493 whole entry): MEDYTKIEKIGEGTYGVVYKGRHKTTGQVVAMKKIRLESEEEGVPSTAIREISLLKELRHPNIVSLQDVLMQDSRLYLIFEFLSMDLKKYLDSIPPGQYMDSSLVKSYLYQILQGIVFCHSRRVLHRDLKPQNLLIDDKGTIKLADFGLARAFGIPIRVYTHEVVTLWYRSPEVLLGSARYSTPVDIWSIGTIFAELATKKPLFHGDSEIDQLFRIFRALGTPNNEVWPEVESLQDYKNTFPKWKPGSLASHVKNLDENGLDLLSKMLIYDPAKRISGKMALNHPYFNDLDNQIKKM
T2 sequence (P14635 whole entry partner): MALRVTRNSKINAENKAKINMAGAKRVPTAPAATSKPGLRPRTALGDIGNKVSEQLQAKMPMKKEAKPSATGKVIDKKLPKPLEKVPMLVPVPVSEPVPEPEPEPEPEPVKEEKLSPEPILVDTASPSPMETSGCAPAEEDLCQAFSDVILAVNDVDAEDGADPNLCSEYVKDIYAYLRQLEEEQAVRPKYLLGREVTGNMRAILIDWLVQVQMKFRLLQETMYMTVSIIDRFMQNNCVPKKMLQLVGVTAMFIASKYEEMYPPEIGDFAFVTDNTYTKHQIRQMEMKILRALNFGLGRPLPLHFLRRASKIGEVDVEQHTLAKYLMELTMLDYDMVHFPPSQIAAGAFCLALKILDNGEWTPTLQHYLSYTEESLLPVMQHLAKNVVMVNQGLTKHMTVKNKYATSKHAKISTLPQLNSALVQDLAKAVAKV
As to the kind of experiment: CDK1/CycB kinase assay. The following applies: 0.5 μM ATP. The protocol:
Recombinant CDK1- and CycB-GST fusion proteins, purified from baculovirus-infected insect cells (Sf9), were purchased from ProQinase GmbH, Freiburg. The histone IIIS used as kinase substrate can be purchased from Sigma.
CDK1/CycB (5 ng/μL) was incubated in the presence of various concentrations of test substances (0 μM, and within the range 0.01-100 μM) in 40 μL of assay buffer [50 mM Tris/HCl pH 8.0, 10 mM MgCl2, 0.1 mM Na ortho-vanadate, 1.0 mM dithiothreitol, 0.025% PEG 20000, 0.5 μM ATP, 10 μM histone IIIS, 0.2 μCi/measurement point ^33P-gamma ATP, 0.05% NP40, 1.25% dimethyl sulphoxide] at 22° C. for 10 min. The reaction was stopped by adding EDTA solution (250 mM, pH 8.0, 15 μl/measurement point). 15 μl of each reaction mixture were loaded onto P30 filter strips (from Wallac), and non-incorporated ^33P-ATP was removed by washing the filter strips three times in 0.5% strength phosphoric acid for 10 min each time. After the filter strips had been dried at 70° C. for 1 hour, the filter strips were covered with scintillator strips (MeltiLex™ A, from Wallac) and baked at 90° C. for 1 hour. The amount of incorporated ^33P (substrate phosphorylation) was determined by scintillation measurement in a gamma radiation counter (Wallac).
(§1) The measured data were normalized to 0% inhibition (enzyme reaction without inhibitor) and 100% inhibition (all assay components except enzyme). The IC50 values were determined by means of a 4-parameter fit using the company's own software.

Another test deals with T3, KDR (VEGFR2) (Homo sapiens, UniProt P35968).
T3 construct: GST; purchased ProQinase GmbH, Freiburg; host or cells: baculovirus-infected insect cells (Sf9)
T3 sequence (P35968 807-1356 limits assumed): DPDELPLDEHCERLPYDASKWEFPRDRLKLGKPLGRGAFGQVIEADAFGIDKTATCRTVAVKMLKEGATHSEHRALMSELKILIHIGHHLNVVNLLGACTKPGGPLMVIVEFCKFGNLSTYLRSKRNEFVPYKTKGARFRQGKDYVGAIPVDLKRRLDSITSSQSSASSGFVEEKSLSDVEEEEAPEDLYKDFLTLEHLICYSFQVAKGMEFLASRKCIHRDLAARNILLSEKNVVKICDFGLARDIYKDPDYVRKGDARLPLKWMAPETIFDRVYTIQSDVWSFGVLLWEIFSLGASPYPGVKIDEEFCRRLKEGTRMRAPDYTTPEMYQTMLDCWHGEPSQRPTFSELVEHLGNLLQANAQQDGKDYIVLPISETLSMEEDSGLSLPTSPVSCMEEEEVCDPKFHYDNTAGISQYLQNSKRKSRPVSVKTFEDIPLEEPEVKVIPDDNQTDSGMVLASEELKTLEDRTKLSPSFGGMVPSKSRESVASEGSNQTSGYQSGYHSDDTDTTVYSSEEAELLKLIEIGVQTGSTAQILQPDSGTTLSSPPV
Nature of the test: KDR kinase assay. The settings on record: 8 μM ATP. The protocol:
Recombinant KDR kinase-GST fusion proteins purified from baculovirus-infected insect cells (Sf9), were purchased from ProQinase GmbH, Freiburg. Poly(Glu4Tyr)n, which was used as kinase substrate, was purchased from Sigma.
KDR kinase was incubated in the presence of various concentrations of test substances (0 μM, and within the range 0.01-100 μM) in 40 μL of assay buffer [40 mM Tris/HCl pH 7.5, 10 mM MgCl2, 1 mM MnCl2, 1.0 mM dithiothreitol, 8 μM ATP, 0.025% PEG20000, 24 ng/μL poly(Glu4Tyr)n, 0.2 μCi/measurement point ^33P-gamma ATP, 1.25% dimethyl sulphoxide] at 22° C. for 10 min. The reaction was stopped by adding EDTA solution (250 mM, pH 7.5, 15 μl/measurement point). 15 μl of each reaction mixture were loaded onto P30 filter strips (from Wallac), and non-incorporated ^33P-ATP was removed by washing the filter strips three times in 0.5% strength phosphoric acid for 10 min each time.
(§2) After the filter strips had been dried at 70° C. for 1 hour, the filter strips were covered with scintillator strips (MeltiLex™ A, from Wallac) and baked at 90° C. for 1 hour. The amount of incorporated ^33P (substrate phosphorylation) was determined by scintillation measurement in a gamma radiation counter (Wallac).
as §1

For another test, the target named is T4, CDK2/CycE (Homo sapiens, UniProt P24941).
T4 construct: GST; purchased ProQinase GmbH, Freiburg; host or cells: baculovirus-infected insect cells (Sf9)
As to the kind of experiment: CDK2/CycE kinase assay. The following applies: 0.5 μM ATP. The protocol:
Recombinant CDK2- and CycE-GST fusion proteins, purified from baculovirus-infected insect cells (Sf9), were purchased from ProQinase GmbH, Freiburg. The histone IIIS used as kinase substrate was purchased from Sigma. CDK2/CycE (1.25 ng/μL) was incubated in the presence of various concentrations of test substances (0 μM, and within the range 0.01-100 μM) in 40 μL of assay buffer [50 mM Tris/HCl pH 8.0, 10 mM MgCl2, 0.1 mM Na ortho-vanadate, 1.0 mM dithiothreitol, 0.5 μM ATP, 0.2% PEG20000, 10 μM histone IIIS, 0.2 μCi/measurement point ^33P-gamma ATP, 0.05% NP40, 1.25% dimethyl sulphoxide] at 22° C. for 10 min. The reaction was stopped by adding EDTA solution (250 mM, pH 8.0, 15 μl/measurement point).
15 μl of each reaction mixture were loaded onto P30 filter strips (from Wallac), and non-incorporated ^33P-ATP was removed by washing the filter strips three times in 0.5% strength phosphoric acid for 10 min each time.
as §2, §1

For test [1], the system named is Aurora C, CDK1/CycB, CDK2/CycE, KDR (VEGFR2). Nature of the test: various kinase assays taken together (selectivity profile). The following applies: comparison across the kinase assays, in words. The protocol: The compounds of Examples 1 to 22 were tested for their inhibitory effect in the various kinase assays and in a proliferation assay with MCF7 human breast tumour cells (Tab. 1). […] Exemplary compounds 1-8, 10-12, 15, 17-20 inhibit the proliferation of human MCF7 breast tumour cells with half-maximum concentrations in the submicromolar range.

Consider `Cc1c(NC(=O)N=S(C)(C)=O)cccc1Nc1ncc(Br)c(N[C@H](C)[C@@H](C)O)n1` [Example 9, N-({3-[(5-Bromo-4-{[(1R,2R)-2-hydroxy-1-methylpropyl]amino}pyrimidin-2-yl)amino]-2-methylphenyl)carbamoyl)-S,S-dimethylsulphoximide], for which the IC50 against human Aurora-C is 20000 nM; against CDK1/CycB, 180 nM; against KDR (VEGFR2), greater than 1000 nM; at CDK2/CycE, 43 nM. Moreover, the selectivity profile result in test [1] is given as “CDK-selective”.

The term IC50 denotes the concentration that gives 50% inhibition.
